The values below come from ChEMBL document CHEMBL5291721, “A preclinical secondary pharmacology resource illuminates target-adverse drug reaction associations of marketed drugs” (Nat Commun, 2023).

Structures are written as SMILES.

For test [1], the target named is T1, Gastrin/cholecystokinin type B receptor (Homo sapiens, UniProt P32239).
T1 sequence (P32239 whole entry): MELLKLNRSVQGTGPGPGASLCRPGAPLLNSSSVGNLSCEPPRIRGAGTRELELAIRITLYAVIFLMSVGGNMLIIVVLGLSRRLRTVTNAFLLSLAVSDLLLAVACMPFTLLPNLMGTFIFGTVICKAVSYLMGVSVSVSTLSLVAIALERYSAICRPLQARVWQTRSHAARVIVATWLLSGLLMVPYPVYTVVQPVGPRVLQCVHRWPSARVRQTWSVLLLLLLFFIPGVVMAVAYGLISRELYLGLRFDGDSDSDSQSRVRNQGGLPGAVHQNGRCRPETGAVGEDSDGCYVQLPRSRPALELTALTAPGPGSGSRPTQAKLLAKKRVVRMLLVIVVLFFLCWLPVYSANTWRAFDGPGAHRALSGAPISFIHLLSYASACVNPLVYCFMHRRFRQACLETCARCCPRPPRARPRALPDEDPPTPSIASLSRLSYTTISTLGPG

Test [2] concerns the target Neuronal acetylcholine receptor subunit alpha-4 (Homo sapiens, UniProt P43681).
Test [3] addresses T2, 5-hydroxytryptamine receptor 1A (Homo sapiens, UniProt P08908).
T2 sequence (P08908 whole entry): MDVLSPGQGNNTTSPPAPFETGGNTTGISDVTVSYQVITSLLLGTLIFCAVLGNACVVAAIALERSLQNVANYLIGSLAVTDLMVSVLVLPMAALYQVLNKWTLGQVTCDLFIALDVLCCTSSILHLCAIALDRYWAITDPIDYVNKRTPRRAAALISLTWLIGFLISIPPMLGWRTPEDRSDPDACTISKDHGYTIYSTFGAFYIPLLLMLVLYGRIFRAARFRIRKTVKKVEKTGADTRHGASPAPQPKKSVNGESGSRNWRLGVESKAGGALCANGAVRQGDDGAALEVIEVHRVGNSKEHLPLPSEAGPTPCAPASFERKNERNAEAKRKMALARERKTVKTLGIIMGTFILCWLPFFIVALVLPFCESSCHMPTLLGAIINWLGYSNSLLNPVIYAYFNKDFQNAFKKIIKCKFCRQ
The test is classed as functional, cell-based.

Test [4] has as its target T3, 5-hydroxytryptamine receptor 3A (Homo sapiens, UniProt P46098).
T3 sequence (P46098 whole entry): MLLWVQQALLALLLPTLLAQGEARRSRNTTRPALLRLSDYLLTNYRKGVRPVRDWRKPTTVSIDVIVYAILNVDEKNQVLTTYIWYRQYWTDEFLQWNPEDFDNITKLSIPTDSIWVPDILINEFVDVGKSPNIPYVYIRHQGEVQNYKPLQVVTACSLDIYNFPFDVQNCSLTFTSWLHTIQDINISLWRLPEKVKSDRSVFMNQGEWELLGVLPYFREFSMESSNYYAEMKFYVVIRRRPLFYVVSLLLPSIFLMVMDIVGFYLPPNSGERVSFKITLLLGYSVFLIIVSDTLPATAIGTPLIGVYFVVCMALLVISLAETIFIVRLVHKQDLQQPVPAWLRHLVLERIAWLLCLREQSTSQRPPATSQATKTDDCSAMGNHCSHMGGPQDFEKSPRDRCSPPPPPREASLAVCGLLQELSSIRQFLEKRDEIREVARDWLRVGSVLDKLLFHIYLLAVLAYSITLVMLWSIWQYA
In kind it is functional.

Test [5] concerns the target Mu-type opioid receptor (Homo sapiens, UniProt P35372). Kind of test: biochemical. In kind it is functional.
Test [6] deals with T4, Thromboxane A2 receptor (Homo sapiens, UniProt P21731).
T4 sequence (P21731 whole entry): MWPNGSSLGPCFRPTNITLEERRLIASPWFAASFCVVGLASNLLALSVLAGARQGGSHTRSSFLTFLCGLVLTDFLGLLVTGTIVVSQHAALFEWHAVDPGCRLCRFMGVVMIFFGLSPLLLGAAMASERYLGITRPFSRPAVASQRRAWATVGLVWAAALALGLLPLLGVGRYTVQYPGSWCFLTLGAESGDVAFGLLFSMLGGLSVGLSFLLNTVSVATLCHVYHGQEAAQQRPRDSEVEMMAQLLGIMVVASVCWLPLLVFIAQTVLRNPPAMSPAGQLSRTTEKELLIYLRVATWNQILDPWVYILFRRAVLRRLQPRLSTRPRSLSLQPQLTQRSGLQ

For test [7], the target named is T5, Amine oxidase [flavin-containing] A (Homo sapiens, UniProt P21397).
T5 sequence (P21397 whole entry): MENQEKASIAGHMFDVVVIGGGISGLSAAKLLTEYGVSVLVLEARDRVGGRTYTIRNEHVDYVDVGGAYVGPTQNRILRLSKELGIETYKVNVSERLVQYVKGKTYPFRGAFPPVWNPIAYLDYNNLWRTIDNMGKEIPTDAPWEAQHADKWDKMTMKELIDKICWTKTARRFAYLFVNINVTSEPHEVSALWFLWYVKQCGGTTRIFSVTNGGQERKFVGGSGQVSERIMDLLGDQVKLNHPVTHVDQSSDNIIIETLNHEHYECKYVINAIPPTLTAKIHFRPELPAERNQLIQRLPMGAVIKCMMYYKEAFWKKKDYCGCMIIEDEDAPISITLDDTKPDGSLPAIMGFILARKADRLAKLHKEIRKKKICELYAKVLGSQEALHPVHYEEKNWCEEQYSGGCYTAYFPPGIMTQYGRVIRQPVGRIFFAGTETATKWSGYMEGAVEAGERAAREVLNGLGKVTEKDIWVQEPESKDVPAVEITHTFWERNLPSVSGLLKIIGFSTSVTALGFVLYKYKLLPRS
In kind it is functional.

Test [8] concerns the target Vasopressin V1a receptor (Homo sapiens, UniProt P37288).
Test [9] deals with Muscarinic acetylcholine receptor M3 (Homo sapiens, UniProt P20309).

A word on the AC50: it is the concentration at which the activity in the assay is half-maximal. A lower AC50 goes with activity at low concentration.
Note: assay procedure not described here.

Sequence of Vasopressin V1a receptor (P37288 whole entry): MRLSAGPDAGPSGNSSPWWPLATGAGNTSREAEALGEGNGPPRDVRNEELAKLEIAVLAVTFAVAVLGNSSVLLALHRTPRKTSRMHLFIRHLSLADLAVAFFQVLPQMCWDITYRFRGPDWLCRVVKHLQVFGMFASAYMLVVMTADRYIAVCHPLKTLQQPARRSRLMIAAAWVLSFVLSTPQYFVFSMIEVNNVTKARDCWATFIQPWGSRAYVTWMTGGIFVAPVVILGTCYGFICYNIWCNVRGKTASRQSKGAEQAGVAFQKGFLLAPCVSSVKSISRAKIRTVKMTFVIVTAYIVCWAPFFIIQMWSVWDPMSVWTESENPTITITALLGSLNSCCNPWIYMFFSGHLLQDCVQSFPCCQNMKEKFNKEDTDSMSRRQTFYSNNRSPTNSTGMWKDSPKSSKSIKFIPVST
Sequence of Neuronal acetylcholine receptor subunit alpha-4 (P43681 whole entry): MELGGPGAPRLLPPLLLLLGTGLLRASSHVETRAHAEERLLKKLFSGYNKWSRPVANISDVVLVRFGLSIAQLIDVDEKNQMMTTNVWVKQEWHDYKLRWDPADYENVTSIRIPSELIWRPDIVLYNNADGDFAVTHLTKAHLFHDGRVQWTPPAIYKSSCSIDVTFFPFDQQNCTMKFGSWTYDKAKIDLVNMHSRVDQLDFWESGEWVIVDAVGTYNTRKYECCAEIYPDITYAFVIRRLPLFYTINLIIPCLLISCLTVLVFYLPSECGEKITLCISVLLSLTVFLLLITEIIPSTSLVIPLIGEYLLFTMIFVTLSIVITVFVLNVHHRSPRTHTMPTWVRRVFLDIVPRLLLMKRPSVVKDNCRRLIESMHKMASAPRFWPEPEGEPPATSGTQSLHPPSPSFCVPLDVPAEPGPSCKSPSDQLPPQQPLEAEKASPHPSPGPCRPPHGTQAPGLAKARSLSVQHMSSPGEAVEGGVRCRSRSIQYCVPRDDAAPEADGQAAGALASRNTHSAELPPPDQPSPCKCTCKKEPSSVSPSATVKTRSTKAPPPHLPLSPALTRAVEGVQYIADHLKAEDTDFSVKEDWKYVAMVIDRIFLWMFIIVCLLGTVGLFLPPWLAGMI
Sequence of Muscarinic acetylcholine receptor M3 (P20309 whole entry): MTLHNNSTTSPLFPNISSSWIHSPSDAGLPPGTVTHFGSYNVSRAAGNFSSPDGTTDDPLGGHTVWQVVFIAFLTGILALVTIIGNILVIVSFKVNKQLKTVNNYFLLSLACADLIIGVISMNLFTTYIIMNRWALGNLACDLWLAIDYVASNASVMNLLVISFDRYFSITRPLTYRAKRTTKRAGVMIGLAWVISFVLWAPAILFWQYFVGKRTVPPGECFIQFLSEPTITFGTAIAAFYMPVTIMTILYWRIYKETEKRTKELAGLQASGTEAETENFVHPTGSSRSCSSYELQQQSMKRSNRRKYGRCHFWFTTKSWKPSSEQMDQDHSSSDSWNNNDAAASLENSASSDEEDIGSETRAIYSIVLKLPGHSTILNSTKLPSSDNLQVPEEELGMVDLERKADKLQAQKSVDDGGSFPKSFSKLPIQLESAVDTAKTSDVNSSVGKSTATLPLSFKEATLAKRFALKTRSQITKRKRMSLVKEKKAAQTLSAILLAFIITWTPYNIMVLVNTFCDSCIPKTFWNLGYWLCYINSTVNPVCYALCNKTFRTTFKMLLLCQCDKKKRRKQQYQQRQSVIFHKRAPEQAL
Sequence of Mu-type opioid receptor (P35372 whole entry): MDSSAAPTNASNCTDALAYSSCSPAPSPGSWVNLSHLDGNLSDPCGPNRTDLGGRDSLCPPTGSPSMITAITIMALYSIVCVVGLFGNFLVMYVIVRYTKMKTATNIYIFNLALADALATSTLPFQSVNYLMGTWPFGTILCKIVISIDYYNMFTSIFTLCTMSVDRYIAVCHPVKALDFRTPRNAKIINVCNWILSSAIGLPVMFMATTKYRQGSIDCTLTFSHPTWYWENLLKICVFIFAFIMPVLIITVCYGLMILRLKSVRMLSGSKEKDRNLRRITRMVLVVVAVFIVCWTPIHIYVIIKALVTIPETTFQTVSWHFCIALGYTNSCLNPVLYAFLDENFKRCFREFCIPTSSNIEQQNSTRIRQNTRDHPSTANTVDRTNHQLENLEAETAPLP

With `CC(=O)O[C@@]12CO[C@@H]1C[C@H](O)[C@@]1(C)C(=O)[C@H](O)C3=C(C)[C@@H](OC(=O)[C@H](O)[C@@H](NC(=O)OC(C)(C)C)c4ccccc4)C[C@@](O)([C@@H](OC(=O)c4ccccc4)[C@H]21)C3(C)C` [DOCETAXEL ANHYDROUS], the AC50 in test [1] is 19.2 µM; in test [2], > 30 µM; in test [3] it was > 30 µM; in [4], > 30 µM; in [5], > 30 µM; in [6] it was > 30 µM. Besides, the AC50 in test [7] was > 30 µM.
Regarding `NC(CO)C(=O)NNCc1ccc(O)c(O)c1O` (configuration not stated) [BENSERAZIDE], the AC50 is > 30 µM in [8]; > 30 µM in test [1]; > 30 µM in test [9]; > 10 µM in test [2]; > 10 µM in test [3]; > 30 µM in [4]. Moreover, the figures for the AC50 in test [6] and in test [7] were > 30 µM and > 10 µM, respectively.
With `CC[C@]1(O)C[C@@H]2CN(CCc3c([nH]c4ccccc34)[C@@](C(=O)OC)(c3cc4c(cc3OC)N(C)[C@H]3[C@@](O)(C(N)=O)[C@H](O)[C@]5(CC)C=CCN6CC[C@]43[C@@H]65)C2)C1` [VINDESINE], the AC50 in test [1], in test [2], in [4], in test [5], in [6] and in test [7] was > 30 µM throughout.
Take `CCCOc1ccc(C(=O)OCCN(CC)CC)cc1N` [PROPARACAINE]: the half-maximal activity concentration (AC50) in test [1] was > 30 µM; in [2] it was > 30 µM; in [4], > 30 µM; in [5], > 30 µM; in [7] it was 11 µM.
As for `COc1c(C)c2c(c(O)c1C/C=C(\C)CCC(=O)OCCN1CCOCC1)C(=O)OC2` [MYCOPHENOLATE MOFETIL], the AC50 in test [1], in test [2], in [4], in [5], in [6] and in test [7] was > 30 µM in each case.
Regarding `C=C1CC[C@@]2(O)[C@H]3Cc4ccc(O)c5c4[C@@]2(CCN3CC2CC2)[C@H]1O5`, the AC50 in [8], in test [1], in test [9], in test [2], in [3] and in test [4] was > 30 µM each time. In addition, the AC50 in test [6] and in test [7] was > 30 µM throughout.
For the compound `CN1CC(=O)N2[C@H](c3ccc4c(c3)OCO4)c3[nH]c4ccccc4c3C[C@@H]2C1=O`, the AC50 is > 30 µM in test [8]; > 30 µM in test [1]; > 30 µM in test [9]; > 10 µM in [2]; > 10 µM in test [3]; > 30 µM in test [4]. For the same compound, the AC50 in test [6] was > 30 µM; in test [7], > 10 µM.
For the compound `COc1c(N2CCNC(C)C2)c(F)cc2c(=O)c(C(=O)O)cn(C3CC3)c12` (configuration not stated) [GATIFLOXACIN], the AC50 is > 10 µM in test [2]; > 10 µM in test [3]; > 30 µM in test [4]; 28 µM in test [5]; > 10 µM in [6]; > 10 µM in test [7].
`Cc1cccc(C)c1NC(=O)C1CCCCN1C` (configuration not stated) [MEPIVACAINE]: the AC50 in test [1], in test [2], in [3], in test [4], in test [5] and in test [7] was > 30 µM throughout.
`CN1CCN(C(=O)OC2c3nccnc3C(=O)N2c2ccc(Cl)cn2)CC1` (configuration not stated) [ZOPICLONE]: the AC50 is > 30 µM in [8]; > 30 µM in test [1]; > 30 µM in test [9]; > 30 µM in test [2]; > 10 µM in test [3]; > 10 µM in [4]. Also, the AC50 in test [6] and in [7] was > 30 µM in each case.
With `Cc1c(O)c(=O)ccn1C` [DEFERIPRONE], the AC50 in test [1], in test [2], in test [3], in test [4], in [5] and in [6] was > 30 µM each time. The AC50 in test [7] was > 30 µM.
`COc1ccc2c(c1)c(CC(=O)OCC(=O)O)c(C)n2C(=O)c1ccc(Cl)cc1` [ACEMETACIN]: the AC50 is > 10 µM in [1]; > 30 µM in test [2]; 25 µM in test [3]; > 30 µM in [4]; > 30 µM in test [5]; > 30 µM in test [6]. The AC50 in test [7] is > 30 µM.
With `CN(C)C(=O)OC1N=C(c2ccccc2)c2cc(Cl)ccc2N(C)C1=O` (configuration not stated) [CAMAZEPAM], the AC50 was > 10 µM in test [8]; > 30 µM in [1]; > 10 µM in test [9]; > 10 µM in test [2]; > 10 µM in test [3]; > 10 µM in test [4]. The values for the AC50 in test [6] and in [7] were > 30 µM and > 10 µM, respectively.
Take `Cc1cc(-c2ccccc2)nnc1NCCN1CCOCC1` [MINAPRINE]: the AC50 was > 10 µM in test [8]; > 30 µM in test [1]; > 10 µM in test [9]; > 10 µM in test [2]; > 10 µM in test [3]; > 30 µM in test [4]. In addition, the AC50 in test [6] is > 30 µM; in test [7] it was > 10 µM.
With `C1COC(NC(C2CC2)C2CC2)=N1` [RILMENIDINE], the AC50 in test [8] is > 30 µM; in [1], > 30 µM; in test [9] it was > 30 µM; in test [2], > 10 µM; in test [3], > 30 µM; in test [4] it was > 30 µM. For the same compound, the results for the AC50 in test [6] and in test [7] were > 30 µM and > 10 µM, respectively.
Consider `CCCCOc1cc(C(=O)NCCN(CC)CC)c2ccccc2n1` [DIBUCAINE], for which the AC50 is > 30 µM in test [8]; > 30 µM in [1]; > 30 µM in test [9]; > 30 µM in test [2]; > 10 µM in test [3]; > 30 µM in test [4]. The AC50 is > 30 µM in test [6] and > 10 µM in [7].
Consider `CN[C@@H](C)[C@H](O)c1ccccc1` [EPHEDRINE], for which the AC50 in test [8] was > 10 µM; in test [1] it was > 30 µM; in test [9], > 10 µM; in test [2], > 10 µM; in [3], > 10 µM; in test [4] it was > 30 µM. The AC50 in test [6] was > 30 µM; in test [7] it was > 10 µM.
